Numbered stars: 1 amine (or outer) side, 2 acyl side, 3 side chain; on linkers, the order of the positions; unused ones are H or OH. Side chains are listed from the residue outwards. Peptide text beside a SMILES is read from it. * marks the point of attachment. C20 diacid = O=C(O)CCCCCCCCCCCCCCCCCCC(=O)*; γGlu = O=C(O)[C@H](CCC(=O)[*:2])N[*:1]
Key:
[1] = target: T1, Amylin receptor AMY3; CALCR/RAMP3 (Homo sapiens, UniProt O60896+P30988); assay: Agonist activity at human amylin receptor expressed in BHK570 cells co-expressing RAMP3 assessed as increase in intracellular cAMP concentration incubated for 3 hrs in absence of albumin by CRE luciferase reporter gene assay; type: functional, cell-based
T1 sequence (P30988 whole entry): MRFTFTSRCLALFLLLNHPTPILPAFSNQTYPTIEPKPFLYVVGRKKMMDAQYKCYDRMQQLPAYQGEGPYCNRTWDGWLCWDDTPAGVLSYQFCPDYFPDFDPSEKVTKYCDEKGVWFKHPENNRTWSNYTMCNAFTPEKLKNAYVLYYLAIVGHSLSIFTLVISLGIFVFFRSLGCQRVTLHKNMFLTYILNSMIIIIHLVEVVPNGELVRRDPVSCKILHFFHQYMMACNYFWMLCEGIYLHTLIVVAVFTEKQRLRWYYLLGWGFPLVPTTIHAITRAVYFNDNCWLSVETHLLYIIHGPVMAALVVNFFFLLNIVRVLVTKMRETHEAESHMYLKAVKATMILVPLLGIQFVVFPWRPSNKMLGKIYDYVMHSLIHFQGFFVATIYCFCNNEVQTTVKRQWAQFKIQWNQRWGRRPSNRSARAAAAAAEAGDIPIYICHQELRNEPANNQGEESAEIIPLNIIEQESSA
T1 sequence (O60896 whole entry): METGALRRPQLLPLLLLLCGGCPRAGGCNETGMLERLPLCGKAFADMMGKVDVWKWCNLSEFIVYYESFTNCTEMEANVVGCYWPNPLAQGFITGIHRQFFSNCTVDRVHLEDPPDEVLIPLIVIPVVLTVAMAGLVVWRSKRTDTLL

[2] = Solubility in 100 mM glycylglycine buffer at pH 5.0 incubated for 18 hrs by UPLC analysis; type: physicochemical
[3] = Solubility in 100 mM glycylglycine buffer at pH 3.0 incubated for 18 hrs by UPLC analysis; type: physicochemical
[4] = Solubility in 100 mM bistrispropane buffer at pH 6.5 incubated for 18 hrs by UPLC analysis; type: physicochemical
[5] = Solubility in 100 mM bistrispropane buffer at pH 8.0 incubated for 18 hrs by UPLC analysis; type: physicochemical
[6] = Solubility in 100 mM glycylglycine buffer at pH 4.0 incubated for 18 hrs by UPLC analysis; type: physicochemical
[7] = target: T2, Calcitonin receptor (Homo sapiens, UniProt P30988); assay: Displacement of [125I]-labeled human calcitonin from human calcitonin receptor expressed in BHK tkts13 cell membranes incubated for 1 hr by scintillation proximity assay
T2 sequence (P30988 whole entry): T1 sequence (P30988 whole entry)

[8] = target: T3, Amylin receptor AMY3; CALCR/RAMP3 (Rattus norvegicus, UniProt P32214+Q9JJ73); assay: Displacement of [125I]-labeled rat amylin from rat amylin receptor expressed in BHK tkts13 cell membranes co-expressing RAMP3 incubated for 120 mins by scintillation proximity assay
T3 sequence (P32214 whole entry): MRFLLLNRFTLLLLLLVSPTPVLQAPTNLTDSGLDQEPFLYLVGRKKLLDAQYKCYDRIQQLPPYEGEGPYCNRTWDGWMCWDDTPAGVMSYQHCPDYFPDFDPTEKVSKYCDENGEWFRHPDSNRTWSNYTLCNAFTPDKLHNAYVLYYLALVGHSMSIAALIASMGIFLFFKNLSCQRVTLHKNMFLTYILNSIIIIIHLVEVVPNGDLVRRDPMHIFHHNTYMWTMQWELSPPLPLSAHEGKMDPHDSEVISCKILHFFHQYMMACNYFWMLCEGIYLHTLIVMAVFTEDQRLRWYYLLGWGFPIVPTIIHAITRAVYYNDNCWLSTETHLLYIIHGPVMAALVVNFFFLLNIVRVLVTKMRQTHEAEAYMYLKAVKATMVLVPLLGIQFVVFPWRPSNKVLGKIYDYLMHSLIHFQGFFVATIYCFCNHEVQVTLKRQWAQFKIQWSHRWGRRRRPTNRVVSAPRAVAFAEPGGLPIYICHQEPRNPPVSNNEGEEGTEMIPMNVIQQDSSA
T3 sequence (Q9JJ73 whole entry): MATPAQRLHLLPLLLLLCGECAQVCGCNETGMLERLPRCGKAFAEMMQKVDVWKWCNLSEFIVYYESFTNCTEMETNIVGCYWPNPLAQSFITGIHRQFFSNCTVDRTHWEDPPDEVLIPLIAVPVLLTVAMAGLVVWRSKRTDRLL

[9] = Solubility in 100 mM bistrispropane buffer at pH 6.0 incubated for 18 hrs by UPLC analysis; type: physicochemical
[10] = Solubility in 100 mM bistrispropane buffer at pH 7.0 incubated for 18 hrs by UPLC analysis; type: physicochemical
[11] = target: T2, Calcitonin receptor; assay: Agonist activity at human calcitonin receptor expressed in BHK570 cells assessed as increase in intracellular cAMP concentration incubated for 3 hrs in absence of albumin by CRE luciferase reporter gene assay; type: functional, cell-based
[12] = target: T2, Calcitonin receptor; assay: Agonist activity at human calcitonin receptor expressed in BHK570 cells assessed as increase in intracellular cAMP concentration incubated for 3 hrs in presence of 10% FBS by CRE luciferase reporter gene assay; type: functional, cell-based
[13] = Solubility in 100 mM bistrispropane buffer at pH 7.5 incubated for 18 hrs by UPLC analysis; type: physicochemical
[14] = target: T1, Amylin receptor AMY3; CALCR/RAMP3; assay: Agonist activity at human amylin receptor expressed in BHK570 cells co-expressing RAMP3 assessed as increase in intracellular cAMP concentration incubated for 3 hrs in presence of 10% FBS by CRE luciferase reporter gene assay; type: functional, cell-based
[15] = target: T1, Amylin receptor AMY3; CALCR/RAMP3; assay: Displacement of [125I]-labeled rat amylin from human amylin receptor expressed in BHK tkts13 whole cells co-expressing RAMP3 incubated for 60 mins by scintillation proximity assay; type: cell-based
[16] = test system: Rattus norvegicus; assay: Reduction in food intake in Sprague-Dawley rat at 3 nmol/kg measured 0 to 24 hrs post dose relative to control; type: functional; set-up: scale not given: the % may be the effect or the level left
[17] = test system: Rattus norvegicus; assay: Reduction in food intake in Sprague-Dawley rat at 3 nmol/kg measured 24 to 48 hrs post dose relative to control; type: functional; set-up: scale not given: the % may be the effect or the level left

SMILES	EC50 [1] [nM]	solubility at 18 h [2] [µM]	solubility at 18 h [3] [µM]	solubility at 18 h [4] [µM]	solubility at 18 h [5] [µM]	solubility at 18 h [6] [µM]	IC50 [7] [nM]	IC50 [8] [nM]	solubility at 18 h [9] [µM]	solubility at 18 h [10] [µM]	EC50 [11] [nM]	EC50 [12] [nM]	solubility at 18 h [13] [µM]	EC50 [14] [nM]	IC50 [15] [nM]	Activity [16] [%]	Activity [17] [%]
CC(=O)N[C@@H](C)C(=O)N[C@@H](CO)C(=O)N[C@@H](CCC(=O)O)C(=O)N[C@@H](CC(C)C)C(=O)N[C@@H](CO)C(=O)N[C@H](C(=O)N[C@@H](C)C(=O)N[C@@H](C)C(=O)N[C@@H](CC(C)C)C(=O)NCC(=O)N[C@@H](CCCNC(=N)N)C(=O)N[C@@H](CC(C)C)C(=O)N[C@@H](CO)C(=O)N[C@@H](C)C(=O)N[C@@H](CCC(=O)O)C(=O)N[C@@H](CC(C)C)C(=O)N[C@@H](Cc1cnc[nH]1)C(=O)N[C@@H](CCCCNC(=O)CC[C@H](NC(=O)CCCCCCCCCCCCCCCCCCC(=O)O)C(=O)O)C(=O)N[C@@H](CC(C)C)C(=O)N[C@@H](C)C(=O)N[C@H](C(=O)N[C@@H](CC(C)C)C(=O)N1CCC[C@H]1C(=O)N[C@@H](CCCNC(=N)N)C(=O)N[C@H](C(=O)N[C@@H](CCC(=O)O)C(=O)N[C@H](C(=O)NCC(=O)N[C@@H](CO)C(=O)NCC(=O)N[C@@H](CO)C(=O)N1CCC[C@H]1C(N)=O)[C@@H](C)O)[C@@H](C)O)[C@@H](C)O)[C@@H](C)O (Ac-ASELSTAALGRLSAELHK([γGlu-C20 diacid])LATLPRTETGSGSP-NH2)	0.032	≥ 200	≥ 200	≥ 200	≥ 200	≥ 200	0.077	0.684	≥ 200	≥ 200	0.019	0.022	≥ 200	0.047			
CC(C)C[C@H](NC(=O)[C@H](CO)NC(=O)[C@H](C)NC(=O)[C@@H](NC(=O)[C@H](CO)NC(=O)[C@H](CC(C)C)NC(=O)[C@H](CCC(=O)O)NC(=O)[C@H](CO)NC(=O)[C@H](C)NC(=O)CC[C@H](NC(=O)CCCCCCCCCCCCCCCCCCC(=O)O)C(=O)O)[C@@H](C)O)C(=O)NCC(=O)N[C@@H](CCCNC(=N)N)C(=O)N[C@@H](CC(C)C)C(=O)N[C@@H](CO)C(=O)N[C@@H](C)C(=O)N[C@@H](CCC(=O)O)C(=O)N[C@@H](CC(C)C)C(=O)N[C@@H](Cc1cnc[nH]1)C(=O)N[C@@H](CCC(=O)O)C(=O)N[C@@H](CC(C)C)C(=O)N[C@@H](CO)C(=O)N[C@H](C(=O)N[C@@H](Cc1ccc(O)cc1)C(=O)N1CCC[C@H]1C(=O)N[C@@H](CCCNC(=N)N)C(=O)N[C@H](C(=O)N[C@@H](CCC(=O)O)C(=O)N[C@H](C(=O)NCC(=O)N[C@@H](CO)C(=O)NCC(=O)N[C@@H](CO)C(=O)N[C@@H](Cc1ccc(O)cc1)C(N)=O)[C@@H](C)O)[C@@H](C)O)[C@@H](C)O ({C20 diacid-γGlu}-ASELSTASLGRLSAELHELSTYPRTETGSGSY-NH2)	0.017		≥ 200		≥ 200		0.1	0.046		≥ 200	0.016	0.108	≥ 200	0.143	3.17		
CC(C)C[C@H](NC(=O)CNC(=O)[C@H](CO)NC(=O)[C@H](C)NC(=O)CC[C@H](NC(=O)CCCCCCCCCCCCCCCCCCC(=O)O)C(=O)O)C(=O)N[C@@H](CO)C(=O)N[C@H](C(=O)N[C@@H](C)C(=O)N[C@H](C(=O)N[C@@H](CC(C)C)C(=O)NCC(=O)N[C@@H](CCCCN)C(=O)N[C@@H](CC(C)C)C(=O)N[C@@H](CO)C(=O)N[C@@H](CCC(N)=O)C(=O)N[C@@H](CCC(=O)O)C(=O)N[C@@H](CC(C)C)C(=O)N[C@@H](Cc1cnc[nH]1)C(=O)N[C@@H](CCC(=O)O)C(=O)N[C@@H](CC(C)C)C(=O)N[C@@H](CCC(N)=O)C(=O)N[C@H](C(=O)N[C@@H](Cc1ccc(O)cc1)C(=O)N1CCC[C@H]1C(=O)N1CCC[C@H]1C(=O)N[C@H](C(=O)N[C@@H](CCC(=O)O)C(=O)N[C@H](C(=O)NCC(=O)N[C@@H](CO)C(=O)NCC(=O)N[C@H](C(=O)N[C@@H](Cc1ccc(O)cc1)C(N)=O)[C@@H](C)O)[C@@H](C)O)[C@@H](C)O)[C@@H](C)O)C(C)C)[C@@H](C)O ({C20 diacid-γGlu}-ASGLSTAVLGKLSQELHELQTYPPTETGSGTY-NH2)	0.018	≥ 200	≥ 200	≥ 200	≥ 200		0.651	0.385	≥ 200	≥ 200	0.015	0.062	≥ 200	0.154		8	9
CC(C)C[C@H](NC(=O)[C@H](CCCNC(=N)N)NC(=O)CNC(=O)[C@H](CC(C)C)NC(=O)[C@@H](NC(=O)[C@H](C)NC(=O)[C@@H](NC(=O)[C@H](CO)NC(=O)[C@H](CC(C)C)NC(=O)[C@H](CCC(N)=O)NC(=O)[C@H](CO)NC(=O)[C@H](C)NC(=O)CC[C@H](NC(=O)CCCCCCCCCCCCCCCCCCC(=O)O)C(=O)O)[C@@H](C)O)C(C)C)C(=O)N[C@@H](CO)C(=O)N[C@@H](CCC(N)=O)C(=O)N[C@@H](CCCNC(=N)N)C(=O)N[C@@H](CC(C)C)C(=O)N[C@@H](Cc1cnc[nH]1)C(=O)N[C@@H](CCCNC(=N)N)C(=O)N[C@@H](CC(C)C)C(=O)N[C@@H](CCC(N)=O)C(=O)N[C@H](C(=O)N[C@@H](Cc1ccc(O)cc1)C(=O)N1CCC[C@H]1C(=O)N[C@@H](CCCNC(=N)N)C(=O)N[C@H](C(=O)N[C@@H](CCC(N)=O)C(=O)N[C@H](C(=O)NCC(=O)N[C@@H](CO)C(=O)N[C@@H](CCC(N)=O)C(=O)N[C@H](C(=O)N[C@@H](Cc1ccc(O)cc1)C(N)=O)[C@@H](C)O)[C@@H](C)O)[C@@H](C)O)[C@@H](C)O ({C20 diacid-γGlu}-ASQLSTAVLGRLSQRLHRLQTYPRTQTGSQTY-NH2)	0.016						0.131	1.16			0.015	0.05		0.037	3.7		

Source: ChEMBL document CHEMBL4420076, “Amylin and calcitonin receptor agonist” (2017)
